Measurements: PubChem BioAssay AID1963825 (Molecular Pharmacology Branch, DTP, NCI, 2024)

Experiment: Anticancer human tumor 997537-175-T-J1-PDC patient-derived colon adenocarcinoma cell line growth inhibition [POLQ]
Conditions: 997537-175-T-J1-PDC complex spheroid viability, combination with POLQ inhibitors; for IC50: curve of first compound; for viability, T/C: stronger effect = lower value; active means viability on the fitted dose curve at most 10% of control; inactive means the rest
Outline: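 PDC + HUVEC + MSC complex spheroids; POLQ inhibitors ± partner drugs; top conc. at/near clinical Cmax, else 10 microM (SN-38 1 microM), half-log dilutions; 37 degrees C, 5% CO2.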
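Further: luminescence signal used as a surrogate for viable cells; spheroids exposed to drugs for seven days before readout.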

CC(=O)O[C@H]1C(=O)[C@@]2(C)[C@H]([C@H](OC(=O)c3ccccc3)[C@]3(O)C[C@H](OC(=O)[C@H](O)[C@@H](NC(=O)c4ccccc4)c4ccccc4)C(C)=C1C3(C)C)[C@]1(OC(C)=O)CO[C@@H]1C[C@@H]2O + COC1C(OC(N)=O)C(O)C(Oc2ccc3c(O)c(NC(=O)c4ccc(O)c(CC=C(C)C)c4)c(=O)oc3c2C)OC1(C)C
14.6 nM: IC50 (second compound 3.16 µM)
< 9.49 nM: IC50 (second compound 0.1 µM)
82.6 nM: IC50 (second compound 0.316 µM)
17 nM: IC50 (second compound 10 µM)
16.5 nM: IC50 (second compound 1 µM)
18.6 nM: IC50 (second compound 0.0316 µM)
inactive: viability, T/C (second compound 0.0316 µM, first compound 0.00949 µM) 65.5% | viability, T/C (second compound 0.0316 µM, first compound 0.03 µM) 41.5% | viability, T/C (second compound 0.0316 µM, first compound 0.0949 µM) 24.5% | viability, T/C (second compound 0.0316 µM, first compound 0.3 µM) 41.6% | viability, T/C (second compound 0.0316 µM, first compound 0.949 µM) 23.9% | viability, T/C (second compound 0.0316 µM, first compound 3 µM) 42% | viability, T/C (second compound 0.1 µM, first compound 0.00949 µM) 46.6% | viability, T/C (second compound 0.1 µM, first compound 0.03 µM) 41% | viability, T/C (second compound 0.1 µM, first compound 0.0949 µM) 23.9% | viability, T/C (second compound 0.1 µM, first compound 0.3 µM) 44.9% | viability, T/C (second compound 0.1 µM, first compound 0.949 µM) 21.9% | viability, T/C (second compound 0.1 µM, first compound 3 µM) 28.1% | viability, T/C (second compound 0.316 µM, first compound 0.00949 µM) 70.7% | viability, T/C (second compound 0.316 µM, first compound 0.03 µM) 60.1% | viability, T/C (second compound 0.316 µM, first compound 0.0949 µM) 34.6% | viability, T/C (second compound 0.316 µM, first compound 0.3 µM) 50.9% | viability, T/C (second compound 0.316 µM, first compound 0.949 µM) 34% | viability, T/C (second compound 0.316 µM, first compound 3 µM) 18.2% | viability, T/C (second compound 1 µM, first compound 0.00949 µM) 66.9% | viability, T/C (second compound 1 µM, first compound 0.03 µM) 32.5% | viability, T/C (second compound 1 µM, first compound 0.0949 µM) 22.9% | viability, T/C (second compound 1 µM, first compound 0.3 µM) 29.6% | viability, T/C (second compound 1 µM, first compound 0.949 µM) 29.9% | viability, T/C (second compound 1 µM, first compound 3 µM) 35.3% | viability, T/C (second compound 3.16 µM, first compound 0.00949 µM) 61.8% | viability, T/C (second compound 3.16 µM, first compound 0.03 µM) 24.9% | viability, T/C (second compound 3.16 µM, first compound 0.0949 µM) 22.7% | viability, T/C (second compound 3.16 µM, first compound 0.3 µM) 30.7% | viability, T/C (second compound 3.16 µM, first compound 0.949 µM) 44% | viability, T/C (second compound 3.16 µM, first compound 3 µM) 28.1% | viability, T/C (second compound 10 µM, first compound 0.00949 µM) 67.2% | viability, T/C (second compound 10 µM, first compound 0.03 µM) 27% | viability, T/C (second compound 10 µM, first compound 0.0949 µM) 35.5% | viability, T/C (second compound 10 µM, first compound 0.3 µM) 40.1% | viability, T/C (second compound 10 µM, first compound 0.949 µM) 27.4% | viability, T/C (second compound 10 µM, first compound 3 µM) 35.6%
